Measurements as given in patent US20050239754A1 (priority 2003, published 2005).

Assay: Pseudo-titration in water with IRA-400(OH) anion exchange resin, samples assayed by HPLC
Format: physicochemical
Description: 60 g of Amberlite IRA400 (OH) resin was prewashed with 4.7 percent (by weight) ammonium hydroxide (50 ml of 28 percent ammonium hydroxide, 250 ml deionized water), followed by extensive washing with deionized water. The final conductivity was 6.1 μS.
Samples containing about 0.9 g of S-[2-[(1-Iminoethyl)amino]ethyl]-2-methyl-L-cysteine di-hydrochloride in 142 ml HCl/water solution, were concentrated on a rotary evaporator at 60° C. to an oil. To the oil, diluted to 60 ml with deionized water, was added aliquots of 0.5 g of washed anion exchange resin while stirring. At five minutes after each aliquot of resin was added, the solution pH was measured and a sample removed through a syringe filter. A total of 9 g of anion exchange resin was added. The final pH was 10.8. The resin was removed by filtration and the filtrate was concentrated to an oil by rotary evaporation at 60° C.; no solids formed. The starting material, final filtrate and all intermediate samples were assayed by HPLC and ion chromatography for chloride.
The diamond (solid line) is pH and square (dashed line) is S-[2-[(1-Iminoethyl)amino]ethyl]-2-methyl-L-cysteine (percent initial, by ion chromatography). […] The diamond (solid line) is pH and triangle (broken line) is chloride (by ion chromatography).
These curves are not true titration curves since samples were withdrawn during the progress of the reaction, and since true equilibrium was not attained before the increments of resin were added. Nevertheless, the graphs of FIG. 2 and FIG. 3 illustrate the expected trends. As resin is added to the S-[2-[(1-Iminoethyl)amino]ethyl]-2-methyl-L-cysteine solution the pH rises with change in slope around pH's of 2, 9 and 11. The pH's of slower rise are representative of the pK's of the carboxylic acid, amine and amidine functional groups, respectively. Above a pH of 10, the S-[2-[(1-Iminoethyl)amino]ethyl]-2-methyl-L-cysteine concentration in solution decreases. At this point, the S-[2-[(1-Iminoethyl)amino]ethyl]-2 methyl-L-cysteine is gaining a net negative charge and is binding to the resin. […] The final chloride content is approximately 0.04 mol equivalents.

[1] = pseudo-titration with anion exchange resin in water, not true titration curves

- pH of slower rise representative of the pK of the amidine [1]: ~11
- pH of slower rise representative of the pK of the amine [1]: ~9
- pH of slower rise representative of the pK of the carboxylic acid [1]: ~2
- Degradation by HPLC assay of the titration samples (samples up to final pH 10.8): no degradation
Compound: CC(=N)NCCSC[C@](C)(N)C(=O)O [S-[2-[(1-Iminoethyl)amino]ethyl]-2-methyl-L-cysteine]
